# In PubChem BioAssay (NCI):
# “And” between values parts separate entries of the source, which are not always exact repeats. Equal entries are not always repeated.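 A five-concentration, 48-hour dose response in 96-well plates underlies each endpoint, interpolated linearly between surrounding concentrations. GI50 is the concentration that inhibits growth by half. TGI: total growth inhibition.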
# Columns and labels:
# Test in all cases: NCI tumour cell line growth inhibition, 48 h
# MOLT-4 leukemia = tested on: MOLT-4 leukemia
# MDA-MB-231 breast = tested on: MDA-MB-231 breast
# HOP-62 NSCLC = tested on: HOP-62 NSCLC
# HCT-116 colon = tested on: HCT-116 colon
# COLO 205 colon = tested on: COLO 205 colon
# LOX IMVI melanoma = tested on: LOX IMVI melanoma
# SF-295 CNS = tested on: SF-295 CNS
# OVCAR-8 ovarian = tested on: OVCAR-8 ovarian
# U251 CNS = tested on: U251 CNS
# MALME-3M melanoma = tested on: MALME-3M melanoma
# K-562 leukemia = tested on: K-562 leukemia
# MCF7 breast = tested on: MCF7 breast
# M14 melanoma = tested on: M14 melanoma
# IGROV1 ovarian = tested on: IGROV1 ovarian
# RPMI-8226 leukemia = tested on: RPMI-8226 leukemia
# NCI-H23 lung = tested on: NCI-H23 lung
# T-47D breast = tested on: T-47D breast
# SK-MEL-2 melanoma = tested on: SK-MEL-2 melanoma
# SF-539 CNS = tested on: SF-539 CNS
# TK-10 renal = tested on: TK-10 renal
# UO-31 renal = tested on: UO-31 renal
# OVCAR-4 ovarian = tested on: OVCAR-4 ovarian
# HOP-92 NSCLC = tested on: HOP-92 NSCLC
# 786-0 renal = tested on: 786-0 renal
# PC-3 prostate = tested on: PC-3 prostate
# A549 NSCLC = tested on: A549 NSCLC
# NCI-H226 lung = tested on: NCI-H226 lung
# RXF 393 renal = tested on: RXF 393 renal
# SN12C renal = tested on: SN12C renal
# SK-MEL-28 melanoma = tested on: SK-MEL-28 melanoma
# HCT-15 colon = tested on: HCT-15 colon
# EKVX NSCLC = tested on: EKVX NSCLC
# HS 578T breast = tested on: HS 578T breast
# SR leukemia = tested on: SR leukemia
# SF-268 CNS = tested on: SF-268 CNS
# NCI-H460 lung = tested on: NCI-H460 lung
# SW-620 colon = tested on: SW-620 colon
# SNB-75 CNS = tested on: SNB-75 CNS
# CCRF-CEM leukemia = tested on: CCRF-CEM leukemia
# SK-OV-3 ovarian = tested on: SK-OV-3 ovarian
# HT29 colon = tested on: HT29 colon
# BT-549 breast = tested on: BT-549 breast
# CAKI-1 renal = tested on: CAKI-1 renal
# A498 renal = tested on: A498 renal
# OVCAR-5 ovarian = tested on: OVCAR-5 ovarian
# UACC-62 melanoma = tested on: UACC-62 melanoma
# DU-145 prostate = tested on: DU-145 prostate
# OVCAR-3 ovarian = tested on: OVCAR-3 ovarian
# ACHN renal = tested on: ACHN renal
# SNB-19 CNS = tested on: SNB-19 CNS
# NCI/ADR-RES ovarian = tested on: NCI/ADR-RES ovarian
# SK-MEL-5 melanoma = tested on: SK-MEL-5 melanoma
# UACC-257 melanoma = tested on: UACC-257 melanoma
# NCI-H522 lung = tested on: NCI-H522 lung
# HCC-2998 colon = tested on: HCC-2998 colon
# KM12 colon = tested on: KM12 colon
# MDA-MB-435 = tested on: MDA-MB-435
# MDA-N = tested on: MDA-N
# HL-60(TB) leukemia = tested on: HL-60(TB) leukemia
# XF 498 CNS = tested on: XF 498 CNS
# KM20L2 colon = tested on: KM20L2 colon
# HOP-18 NSCLC = tested on: HOP-18 NSCLC
# DMS 273 small cell lung = tested on: DMS 273 small cell lung
# SNB-78 CNS = tested on: SNB-78 CNS
# M19-MEL melanoma = tested on: M19-MEL melanoma
# DMS 114 small cell lung = tested on: DMS 114 small cell lung
# LXFL 529 NSCLC = tested on: LXFL 529 NSCLC
# DLD-1 colon = tested on: DLD-1 colon
smiles,measurement,setting,value
COC(=O)c1ccc(=O)c2nc3/c(=C/O)c(O)cc(=O)c3[nH]c12,GI50,MOLT-4 leukemia,0.562 µM
same,TGI,MOLT-4 leukemia,12.1 µM and > 60.8 µM
same,GI50,MDA-MB-231 breast,3.57 µM
same,TGI,MDA-MB-231 breast,19.3 µM and 19.2 µM
same,GI50,HOP-62 NSCLC,0.461 µM
same,TGI,HOP-62 NSCLC,18.7 µM and 16.2 µM
same,GI50,HCT-116 colon,0.321 µM
same,TGI,HCT-116 colon,14.6 µM and 11.8 µM
same,GI50,COLO 205 colon,6.49 µM
same,TGI,COLO 205 colon,> 100 µM
same,GI50,LOX IMVI melanoma,0.662 µM
same,TGI,LOX IMVI melanoma,20.3 µM and 15.4 µM
same,GI50,SF-295 CNS,0.153 µM
same,TGI,SF-295 CNS,14.3 µM and 8.64 µM
same,GI50,OVCAR-8 ovarian,0.364 µM
same,TGI,OVCAR-8 ovarian,2.95 µM and 24.9 µM
same,GI50,U251 CNS,0.176 µM
same,TGI,U251 CNS,28.6 µM and 12.3 µM
same,GI50,MALME-3M melanoma,3.16 µM
same,TGI,MALME-3M melanoma,11.1 µM and 18.6 µM
same,GI50,K-562 leukemia,0.372 µM
same,TGI,K-562 leukemia,> 100 µM
same,GI50,MCF7 breast,0.652 µM
same,TGI,MCF7 breast,17.5 µM and 22.8 µM
same,GI50,M14 melanoma,1.07 µM
same,TGI,M14 melanoma,24.9 µM and 24.5 µM
same,GI50,IGROV1 ovarian,0.469 µM
same,TGI,IGROV1 ovarian,3.31 µM and 17.5 µM
same,GI50,RPMI-8226 leukemia,0.393 µM
same,TGI,RPMI-8226 leukemia,30.7 µM and 3.93 µM
same,GI50,NCI-H23 lung,0.514 µM
same,TGI,NCI-H23 lung,9.33 µM and 16.7 µM
same,GI50,T-47D breast,1.29 µM
same,TGI,T-47D breast,8.65 µM and 48.2 µM
same,GI50,SK-MEL-2 melanoma,2.27 µM
same,TGI,SK-MEL-2 melanoma,15 µM and 16.7 µM
same,GI50,SF-539 CNS,1.21 µM
same,TGI,SF-539 CNS,15.6 µM and 14.5 µM
same,GI50,TK-10 renal,1.3 µM
same,TGI,TK-10 renal,21.1 µM and 17.5 µM
same,GI50,UO-31 renal,0.578 µM
same,TGI,UO-31 renal,8.11 µM and 18 µM
same,GI50,OVCAR-4 ovarian,3.58 µM
same,TGI,OVCAR-4 ovarian,31.4 µM and 29.8 µM
same,TGI,HOP-92 NSCLC,6.03 µM and 11.1 µM
same,GI50,786-0 renal,1.52 µM
same,TGI,786-0 renal,23.8 µM and 17.9 µM
same,GI50,PC-3 prostate,0.525 µM
same,TGI,PC-3 prostate,17.1 µM and 16.6 µM
same,GI50,A549 NSCLC,0.514 µM
same,TGI,A549 NSCLC,14.3 µM and 45 µM
same,GI50,NCI-H226 lung,0.726 µM
same,TGI,NCI-H226 lung,12.2 µM and 12.8 µM
same,GI50,RXF 393 renal,0.637 µM
same,TGI,RXF 393 renal,43.3 µM and 17.1 µM
same,GI50,SN12C renal,0.44 µM
same,TGI,SN12C renal,20 µM and 12.8 µM
same,GI50,SK-MEL-28 melanoma,4.17 µM
same,TGI,SK-MEL-28 melanoma,19.8 µM and 21.1 µM
same,GI50,HCT-15 colon,0.42 µM
same,TGI,HCT-15 colon,21.4 µM and 14.5 µM
same,GI50,EKVX NSCLC,0.557 µM
same,TGI,EKVX NSCLC,8.52 µM and 14.2 µM
same,GI50,HS 578T breast,0.301 µM
same,TGI,HS 578T breast,23 µM and 20.1 µM
same,GI50,SR leukemia,0.361 µM
same,TGI,SR leukemia,> 64.9 µM
same,GI50,SF-268 CNS,1.2 µM
same,TGI,SF-268 CNS,24.9 µM and 18.6 µM
same,GI50,NCI-H460 lung,0.357 µM
same,TGI,NCI-H460 lung,23.8 µM and 19.7 µM
same,GI50,SW-620 colon,1.21 µM
same,TGI,SW-620 colon,> 60.4 µM and 18.9 µM
same,GI50,SNB-75 CNS,0.482 µM
same,TGI,SNB-75 CNS,16.4 µM and 13.6 µM
same,GI50,CCRF-CEM leukemia,0.397 µM
same,TGI,CCRF-CEM leukemia,> 100 µM and 17.2 µM
same,GI50,SK-OV-3 ovarian,2.62 µM
same,TGI,SK-OV-3 ovarian,16.4 µM and 20.8 µM
same,GI50,HT29 colon,1.03 µM
same,TGI,HT29 colon,> 39.8 µM and 28.5 µM
same,GI50,BT-549 breast,0.347 µM
same,TGI,BT-549 breast,6.14 µM and 12.1 µM
same,GI50,CAKI-1 renal,0.581 µM
same,TGI,CAKI-1 renal,12.8 µM and 12.6 µM
same,TGI,A498 renal,30.8 µM and 17.4 µM
same,GI50,OVCAR-5 ovarian,3.38 µM
same,TGI,OVCAR-5 ovarian,13 µM and 22.4 µM
same,GI50,UACC-62 melanoma,1.01 µM
same,TGI,UACC-62 melanoma,7.26 µM and 7.01 µM
same,TGI,DU-145 prostate,16.5 µM and 17.6 µM
same,GI50,OVCAR-3 ovarian,1.04 µM
same,TGI,OVCAR-3 ovarian,25.7 µM and 15 µM
same,GI50,ACHN renal,0.478 µM
same,TGI,ACHN renal,16.6 µM and 14.5 µM
same,GI50,SNB-19 CNS,1.28 µM
same,TGI,SNB-19 CNS,32.2 µM and 20.4 µM
same,GI50,NCI/ADR-RES ovarian,0.379 µM
same,TGI,NCI/ADR-RES ovarian,> 33.6 µM and 13.8 µM
same,GI50,SK-MEL-5 melanoma,1.56 µM
same,TGI,SK-MEL-5 melanoma,9.1 µM and 13.5 µM
same,GI50,UACC-257 melanoma,2.74 µM
same,TGI,UACC-257 melanoma,16.1 µM and 27.8 µM
same,GI50,NCI-H522 lung,0.389 µM
same,TGI,NCI-H522 lung,31 µM and 18.2 µM
same,GI50,HCC-2998 colon,2.94 µM
same,TGI,HCC-2998 colon,25 µM and 18.9 µM
same,GI50,KM12 colon,1.6 µM
same,TGI,KM12 colon,20.1 µM and 18.1 µM
same,GI50,MDA-MB-435,0.559 µM
same,TGI,MDA-MB-435,23.7 µM and 13.2 µM
same,TGI,MDA-N,24.6 µM
same,GI50,HL-60(TB) leukemia,0.601 µM
same,TGI,HL-60(TB) leukemia,19.3 µM
C=C(CN(CC(=C)C(=O)c1ccccc1)C(C)(C)C)C(=O)c1ccccc1,TGI,XF 498 CNS,16 µM
same,TGI,MOLT-4 leukemia,10.2 µM
same,TGI,HCT-116 colon,26.8 µM
same,TGI,COLO 205 colon,7.52 µM
same,TGI,LOX IMVI melanoma,30.8 µM
same,TGI,SF-295 CNS,> 54.2 µM
same,TGI,OVCAR-8 ovarian,67.9 µM
same,TGI,U251 CNS,39.4 µM
same,TGI,MALME-3M melanoma,29.7 µM
same,TGI,K-562 leukemia,21.1 µM
same,TGI,KM20L2 colon,37.5 µM
same,TGI,M14 melanoma,23 µM
same,TGI,IGROV1 ovarian,40.3 µM
same,TGI,RPMI-8226 leukemia,68.4 µM
same,TGI,NCI-H23 lung,32.7 µM
same,TGI,SK-MEL-2 melanoma,35.3 µM
same,TGI,SF-539 CNS,31.5 µM
same,TGI,TK-10 renal,27 µM
same,TGI,UO-31 renal,24.3 µM
same,TGI,OVCAR-4 ovarian,29.3 µM
same,TGI,HOP-92 NSCLC,15 µM
same,TGI,HOP-18 NSCLC,14.3 µM
same,TGI,786-0 renal,24.5 µM
same,TGI,A549 NSCLC,> 77.7 µM
same,TGI,DMS 273 small cell lung,32.4 µM
same,TGI,NCI-H226 lung,48.4 µM
same,TGI,RXF 393 renal,18.7 µM
same,TGI,SN12C renal,32.5 µM
same,TGI,SK-MEL-28 melanoma,36.8 µM
same,TGI,EKVX NSCLC,44.4 µM
same,TGI,SR leukemia,> 21 µM
same,TGI,SNB-78 CNS,53.7 µM
same,TGI,SF-268 CNS,17 µM
same,TGI,NCI-H460 lung,43.2 µM
same,TGI,SW-620 colon,9.91 µM
same,TGI,SNB-75 CNS,17.6 µM
same,TGI,CCRF-CEM leukemia,> 21 µM
same,TGI,SK-OV-3 ovarian,34.4 µM
same,TGI,HT29 colon,41.9 µM
same,TGI,CAKI-1 renal,14.5 µM
same,TGI,M19-MEL melanoma,30 µM
same,TGI,A498 renal,32.9 µM
same,TGI,OVCAR-5 ovarian,34.3 µM
same,TGI,UACC-62 melanoma,32.4 µM
same,TGI,DU-145 prostate,40.3 µM
same,TGI,OVCAR-3 ovarian,37.5 µM
same,TGI,ACHN renal,21.3 µM
same,TGI,SNB-19 CNS,> 59.9 µM
same,TGI,SK-MEL-5 melanoma,31.1 µM
same,TGI,UACC-257 melanoma,32.6 µM
same,TGI,DMS 114 small cell lung,33.5 µM
same,TGI,NCI-H522 lung,29.4 µM
same,TGI,HCC-2998 colon,33.3 µM
same,TGI,KM12 colon,17.6 µM
same,TGI,LXFL 529 NSCLC,10.1 µM
same,TGI,DLD-1 colon,10.2 µM
same,TGI,HL-60(TB) leukemia,9.7 µM
